US10913781B2, “Pepducin design and use” (Tufts Medical Center, Inc., priority 2011, dated 2021)
Peptide text beside a SMILES is read from it. * marks the point of attachment. Palmitoyl = CCCCCCCCCCCCCCCC(=O)*

Experiments:
A549 xenografts = format: in vivo, mouse
Protocol: (§1) FIG. 13 illustrates that monotherapy with PAR1-i3 pepducins inhibits tumor progression of A549 xenografts. (A) and (B): A549 mice treated with vehicle, P1pal-7, P1pal-i1-11, P1pal-10S, X1/2-i1, X1/2-i3, or Avastin. Each time point represents the mean±SE. (C): Final tumor volume at the completion of the experiment was calculated as a percentage of untreated vehicle control. (D): Serum-starved A549 adenocarcinoma cells were pretreated with P1pal-7, P1pal-10S, P1pal-i1-11, vehicle, or PD98059 and stimulated with thrombin. VEGF production was assessed by enzyme-linked immunosorbent assay. Data are expressed as mean±SD (*P<0.05, **P<0.01).
PAR1 expression level is correlated with reduced survival of patients with NSCLC. To define the relative importance of PAR1 in lung tumor progression, in vivo mouse models were used. […] An A549 lung adenocarcinoma xenograft model in nude mice was used to evaluate monotherapy with P1pal-7, P1pal-10S, P1pal-i1-11, or the VEGF antagonist Avastin.

VEGF-A production = test: Thrombin-dependent VEGF-A production in A549 cells (ELISA); format: cell-based, human; conditions: A549, 18 hours thrombin treatment
Protocol: as §1
Because the i3-based P1pal-7 pepducin had similar efficacy as Avastin in suppressing lung tumor growth of A549 xenografts, VEGF-A production was measured in the A549 tumor cells after 18 hours thrombin treatment. […] Unlike in ovarian cancer, no increase was found in PAR1-mediated IL-8 production in A549 cells, consistent with the observed lack of efficacy of CXCR1/2 pepducins in the A549 xenograft models. These xenograft data provide support for the role of a novel PAR1-ERK1/2-VEGF paracrine pathway that is an effective therapeutic target in the A549 adenocarcinoma lung cancer model.

PAR2 = PAR2 (Homo sapiens, UniProt P55085); test: Trypsin cleavage of PAR2; format: cell-based
Source text: Additionally, we tested whether P2pal-18S inhibited proteolytic cleavage of PAR2 or endocytosis (DeFea K A, et al. (2000) J Cell Biol 148: 1267-81; Roosterman D, et al. (2003) Am J Physiol Cell Physiol 284: C1319-29; Stalheim L, et al. (2005) Mol Pharmacol 67: 78-87). […] Therefore, the P2pal-18S i3 loop pepducin can inhibit PAR2-dependent calcium signaling, PLC-b inositol phosphate formation, and cell migration, but not proteolytic cleavage or endocytosis.

PAR1 [1] = target: T1, PAR1 (Homo sapiens, UniProt P25116); test: Ligand-dependent endocytosis of PAR1; format: cell-based
T1 sequence (P25116 22-425): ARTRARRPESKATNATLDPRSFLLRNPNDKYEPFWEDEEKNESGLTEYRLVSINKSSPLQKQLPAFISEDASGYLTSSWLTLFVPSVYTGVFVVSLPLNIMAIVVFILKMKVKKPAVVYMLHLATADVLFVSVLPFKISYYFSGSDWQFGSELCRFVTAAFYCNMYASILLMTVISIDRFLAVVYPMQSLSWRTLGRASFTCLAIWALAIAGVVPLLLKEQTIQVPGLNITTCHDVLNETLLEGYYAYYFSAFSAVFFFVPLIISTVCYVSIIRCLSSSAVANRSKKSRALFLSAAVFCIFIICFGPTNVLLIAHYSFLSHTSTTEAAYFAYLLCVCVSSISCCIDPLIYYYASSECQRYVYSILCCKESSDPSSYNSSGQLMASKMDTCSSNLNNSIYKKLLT

PAR4 = target: T2, PAR4 (Homo sapiens, UniProt Q96RI0); test: Calcium flux assay in SW620 cells, PAR4; format: cell-based; set-up: endogenous in cells
T2 sequence (Q96RI0 18-385): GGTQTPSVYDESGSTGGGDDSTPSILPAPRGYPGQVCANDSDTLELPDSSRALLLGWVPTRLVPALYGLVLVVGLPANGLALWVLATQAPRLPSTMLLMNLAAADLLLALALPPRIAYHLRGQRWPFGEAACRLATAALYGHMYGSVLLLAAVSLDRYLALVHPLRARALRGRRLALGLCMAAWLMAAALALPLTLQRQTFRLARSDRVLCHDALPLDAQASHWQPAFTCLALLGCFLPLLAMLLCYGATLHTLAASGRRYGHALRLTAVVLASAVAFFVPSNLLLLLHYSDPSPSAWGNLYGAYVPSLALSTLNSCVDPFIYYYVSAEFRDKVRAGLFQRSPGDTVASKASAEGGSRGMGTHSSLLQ

PAR1 [2] = target: T1, PAR1; test: PAR1-dependent human platelet aggregation (SFLLRN); format: cell-based; set-up: endogenous in cells; conditions: 2.5 μM SFLLRN; P2pal-18S 1 μM or 5 μM
Protocol: FIG. 5 illustrates: (A) PAR1-dependent human platelet aggregation is not affected by P2pal-18S. Gel-filtered platelets were incubated with 2.5 μM SFLLRN (SEQ ID NO:1) to induce PAR1-dependent platelet aggregation. […] Error bars represent mean±SD. […] Cells were lifted and incubated in PBS/0.4% BSA for 30 min at 25° C. with 0.5-30 μM P2pal-18S or P2pal-14GQ. Propidium iodide (PI) was added directly to the cells and after a 15 min incubation, PI uptake was quantified by flow cytometry. […] Error bars represent ±SEM.

PAR2, sequence (P55085 26-397): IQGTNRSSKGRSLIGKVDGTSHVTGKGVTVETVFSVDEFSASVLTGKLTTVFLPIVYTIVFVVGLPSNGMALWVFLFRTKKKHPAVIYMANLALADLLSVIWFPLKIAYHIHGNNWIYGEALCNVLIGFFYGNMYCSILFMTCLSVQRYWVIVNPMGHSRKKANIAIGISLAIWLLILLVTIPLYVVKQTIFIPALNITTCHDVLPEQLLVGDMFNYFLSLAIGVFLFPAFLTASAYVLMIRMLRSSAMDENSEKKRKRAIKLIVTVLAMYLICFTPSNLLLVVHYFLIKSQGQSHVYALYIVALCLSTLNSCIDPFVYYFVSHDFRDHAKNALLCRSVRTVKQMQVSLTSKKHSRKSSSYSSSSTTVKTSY

| SMILES | Early tumor growth blockade (A549 xenografts; by day 20) | Inhibition of tumor progression/growth (final tumor volume vs vehicle) (A549 xenografts; monotherapy, nude mice) | Effect on thrombin-dependent VEGF-A production (VEGF-A production) | Effect on trypsin cleavage of PAR2 (PAR2) | Inhibition of ligand-dependent endocytosis of PAR1 (PAR1 [1]) | Inhibition of PAR4 calcium flux (PAR4) | Effect on PAR1-dependent platelet aggregation (PAR1 [2]) |
| --- | --- | --- | --- | --- | --- | --- | --- |
| CCCCCCCCCCCCCCCC(=O)N[C@H](C(=O)N[C@@H](CC(C)C)C(=O)N[C@@H](CCCCN)C(=O)N[C@@H](CCSC)C(=O)N[C@@H](CCCCN)C(=O)N[C@H](C(=O)N[C@@H](CCCCN)C(=O)N[C@@H](CCCCN)C(=O)N1CCC[C@H]1C(=O)N[C@@H](C)C(=O)N[C@H](C(N)=O)C(C)C)C(C)C)[C@@H](C)CC [P1pal-i1-11] (Palmitoyl-ILKMKVKKPAV-NH2) | significant blockade of tumor growth | did not inhibit the long-term growth | did not inhibit | – | – | – | – |
| CCCCCCCCCCCCCCCC(=O)N[C@@H](CCCNC(=N)N)C(=O)N[C@@H](CO)C(=O)N[C@@H](CO)C(=O)N[C@@H](C)C(=O)N[C@@H](CCSC)C(=O)N[C@@H](CC(=O)O)C(=O)N[C@@H](CCC(=O)O)C(=O)N[C@@H](CC(N)=O)C(=O)N[C@@H](CO)C(=O)N[C@@H](CCC(=O)O)C(=O)N[C@@H](CCCCN)C(=O)N[C@@H](CCCCN)C(=O)N[C@@H](CCCNC(=N)N)C(=O)N[C@@H](CCCCN)C(=O)N[C@@H](CO)C(=O)N[C@@H](C)C(=O)N[C@H](C(=O)N[C@@H](CCCCN)C(N)=O)[C@@H](C)CC [P2pal-18S] | – | – | – | no effect | did not inhibit | did not inhibit | had no effect |
